Here are results for three compounds from patent publication US20190022135A1, “TREATMENT FOR CHITIN-CONTAINING MICROORGANISMS” (Benchmark Animal Health Limited, priority 2016, published 2019).

In series [1] the test system is eggs and/or fry of Atlantic salmon. The settings on record: 50 mg/L treatment for 1 h; cited from earlier work.
The subject of series [2] is Saprolegnia spores. The series is described as follows: Saprolegnia spore viability in biofilms (CellTiter 96 MTS assay). In kind it is cell-based. The settings on record: 4 h.
Procedure: The effect of treating Saprolegnia-spores with combinations of boric acid and propionic acid was investigated in biofilm preparations since this is one of the most challenging conditions under which effects can be tested.
Spores were produced to form biofilms. Saprolegnia hyphae were excised from GY agar plates and then incubated in GY broth (15±1° C., 2 days), giving additional hyphal growth. Young hyphae were washed in SAW, transferred to two glass bottles containing one liter of SAW and incubated at 21±1° C. (24 h) to allow zoospore production. Suspensions of zoospores were filtered (tea filter, 0.5 mm pores) resulting in zoospore encystment. Cysts were counted by hemocytometer, the cyst suspensions were adjusted to 1.0±104 spores/L. The suspension was then used in the biofilm formation studies (chambered cover glass system) within 3 h of counting.
Treatment with BA and/or PA was for 4 hours in stagnate, aerated water after which the water circulation was resumed. Biofilm preparations were tested for viability as described (Ali et al. 2014). In brief, CellTiter 96 aqueous one solution cell proliferation assay (Promega) was used. The test is based on tetrazolium compound [3-(4,5-dimethylthiazol-2-yl)-5-(3-carboxy-methoxyphenyl)-2-(4-sulfophenyl)-2H-tetrazolium, inner salt; MTS] being reduced by viable cells resulting in the formation of formazan products from MTS. The reaction is based on mitochondrial enzymes being active (dehydrogenase) (Lopes et al. 2013), and is an indicator of metabolic rate of the mitochondria.
Tests were run in 72-well plates with biofilm formed in the wells. BA and/or PA was then added to each tested well (except controls) at increasing concentrations, 1-4 g/L for BA and 31.4 to 125.6 mM/L for PA. Bronopol was used as a positive treatment but at 300 mg/L concentration, and SAW as negative control. Wells with the MTS reagent without spores were used as a background control. The plates were incubated at 15-20° C. Reading was done following 4 h incubation of BA and PA. Formazan product was measured at 490 nm. MTS reduction is proportional to the number and activity of live spores. Spore viability was calculated by: % viability=100×(OD490 value for the sample−mean background OD490)/(mean OD490 for non-treated water control−mean background OD490).
For series [3], the system named is sea lice. The series is described as follows: In vivo studies: number of attached sea lice after treatment. The settings on record: 2.75 ppm/L PA only, 15 min exposure, 4 days post treatment. As to the method: Water salinity: […]; Temperature: 8.5° C.; Oxygen: minimum 8 mg/L in water during treatment (8-10 mg/L measured).
The subject of series [4] is Saprolegnia sp. The series is described as follows: Effect on Saprolegnia zoospores, spores and hyphae (stated finding).

In the case of `O=[N+]([O-])C(Br)(CO)CO` [Pyzece, Bronopol], the egg toxicity entry in series [1] was “egg mortality”. In addition, the “viability level (OD value)” value in series [2] (300 mg/L, biofilm, compared with BA and PA combination (approx. 0.3)) is “same viability level”.

Regarding `CCC(=O)O` [PA, propionic acid], the “reduction of the number of attached sea lice” value in series [3] was “Reduced the number of attached sea lice by 30%”. Moreover, the “viability (OD value)” value in series [2] (PA 4 ml added (equivalent to 125.6 mM/L), biofilm) was “lower OD value”. Further, the “viability, statistical evaluation against 4 g/L of BA” value in series [2] (PA (4 ml)) is “significantly lower viability”. In series [4], the “effect on spores and hyphae” value is “direct toxic effect”.

As for `OB(O)O` [BA, boric acid], the “viability (OD value)” value in series [2] (BA from 1 g/L up to 4 g/L, biofilm) was “declining viability”. The “effect on zoospore production and release and on zoosporangia” value in series [4] is “interferes with the production and subsequent release of zoospores”.
